Assay results: PubChem BioAssay AID248 (DTP/NCI, 2004)
Values joined by “and” are separate entries in the source; they are usually repeats but may differ in a detail not shown here. Equal entries are not always repeated. Inconclusive results and toxic doses are left out. No stated cut-off is given here; in the data, active means T/C of 150% or more; inactive means T/C below 125%.

System: L1210 leukemia ip in BDF1 mice, survival T/C
Assay: NCI In Vivo Anticancer Drug Screen. Data for tumor model L1210 Leukemia (intraperitoneal) in B6D2F1 (BDF1) mice
Conditions: endpoint: mean survival time, higher = longer survival
Procedure, shortened: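 Value reflects the ratio of survival in compound-treated mice to survival in vehicle-treated controls, with both groups carrying the same transplanted tumor.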

[1] = dose: 100.0 mg/kg/injection, schedule: Q04DX003 (ip), vehicle: Klucel (hydroxypropylcellulose) (HPC)
[2] = dose: 200.0 mg/kg/injection, schedule: Q04DX003 (ip), vehicle: Klucel (hydroxypropylcellulose) (HPC)
[3] = dose: 400.0 mg/kg/injection, schedule: Q04DX003 (ip), vehicle: Klucel (hydroxypropylcellulose) (HPC)
[4] = dose: 50.0 mg/kg/injection, schedule: Q01DX009 (ip), vehicle: Klucel (hydroxypropylcellulose) (HPC)
[5] = dose: 100.0 mg/kg/injection, schedule: Q01DX009 (ip), vehicle: Klucel (hydroxypropylcellulose) (HPC)
[6] = dose: 200.0 mg/kg/injection, schedule: Q01DX009 (ip), vehicle: Klucel (hydroxypropylcellulose) (HPC)
[7] = dose: 100.0 mg/kg/injection, schedule: Q01DX001 (ip), vehicle: carboxymethylcellulose (CMC)
[8] = dose: 100.0 mg/kg/injection, schedule: Q04DX003 (ip), vehicle: saline with Tween-80
[9] = dose: 200.0 mg/kg/injection, schedule: Q04DX003 (ip), vehicle: saline with Tween-80
[10] = dose: 400.0 mg/kg/injection, schedule: Q04DX003 (ip), vehicle: saline with Tween-80
[11] = dose: 400.0 mg/kg/injection, schedule: Q01DX009 (ip), vehicle: Klucel (hydroxypropylcellulose) (HPC)
[12] = dose: 50.0 mg/kg/injection, schedule: Q04DX003 (ip), vehicle: saline
[13] = dose: 100.0 mg/kg/injection, schedule: Q01DX001 (ip), vehicle: saline
[14] = dose: 100.0 mg/kg/injection, schedule: Q04DX003 (ip), vehicle: saline
[15] = dose: 200.0 mg/kg/injection, schedule: Q01DX001 (ip), vehicle: saline
[16] = dose: 200.0 mg/kg/injection, schedule: Q04DX003 (ip), vehicle: saline
[17] = dose: 400.0 mg/kg/injection, schedule: Q01DX001 (ip), vehicle: saline
[18] = dose: 200.0 mg/kg/injection, schedule: Q01DX001 (ip), vehicle: carboxymethylcellulose (CMC)
[19] = dose: 400.0 mg/kg/injection, schedule: Q01DX001 (ip), vehicle: carboxymethylcellulose (CMC)
[20] = dose: 100.0 mg/kg/injection, schedule: Q01DX001 (ip), vehicle: Klucel (hydroxypropylcellulose) (HPC)
[21] = dose: 200.0 mg/kg/injection, schedule: Q01DX001 (ip), vehicle: Klucel (hydroxypropylcellulose) (HPC)
[22] = dose: 400.0 mg/kg/injection, schedule: Q01DX001 (ip), vehicle: Klucel (hydroxypropylcellulose) (HPC)
[23] = dose: 100.0 mg/kg/injection, schedule: Q04DX002 (ip), vehicle: Klucel (hydroxypropylcellulose) (HPC)
[24] = dose: 200.0 mg/kg/injection, schedule: Q04DX002 (ip), vehicle: Klucel (hydroxypropylcellulose) (HPC)
[25] = dose: 400.0 mg/kg/injection, schedule: Q04DX002 (ip), vehicle: Klucel (hydroxypropylcellulose) (HPC)
[26] = dose: 100.0 mg/kg/injection, schedule: Q01DX009 (ip), vehicle: saline with Tween-80

Measured: T/C

Nc1ccc(N)cc1
inactive: dose: 1.5 mg/kg/injection, schedule: Q01DX009 (ip), vehicle: DMSO 94 % of control | dose: 3.0 mg/kg/injection, schedule: Q01DX009 (ip), vehicle: DMSO 92 % of control | dose: 5.0 mg/kg/injection, schedule: Q01DX001 (ip), vehicle: saline 98 % of control | dose: 5.0 mg/kg/injection, schedule: Q01DX009 (ip), vehicle: saline with Tween-80 100 % of control | dose: 5.0 mg/kg/injection, schedule: Q04DX003 (ip), vehicle: saline 103 % of control | dose: 6.0 mg/kg/injection, schedule: Q01DX009 (ip), vehicle: DMSO 92 % of control | dose: 6.25 mg/kg/injection, schedule: Q01DX009 (ip), vehicle: DMSO 94 % of control | dose: 10.0 mg/kg/injection, schedule: Q01DX001 (ip), vehicle: saline 102 % of control | dose: 10.0 mg/kg/injection, schedule: Q01DX009 (ip), vehicle: saline with Tween-80 96 % of control | dose: 10.0 mg/kg/injection, schedule: Q04DX003 (ip), vehicle: saline 98 % of control | dose: 12.5 mg/kg/injection, schedule: Q01DX009 (ip), vehicle: DMSO 89 % of control | dose: 20.0 mg/kg/injection, schedule: Q01DX001 (ip), vehicle: saline 106 % of control | dose: 20.0 mg/kg/injection, schedule: Q01DX009 (ip), vehicle: saline with Tween-80 99 % of control | dose: 20.0 mg/kg/injection, schedule: Q04DX003 (ip), vehicle: saline 97 % of control | dose: 40.0 mg/kg/injection, schedule: Q01DX001 (ip), vehicle: saline 106 % of control | dose: 100.0 mg/kg/injection, schedule: Q04DX003 (ip), vehicle: DMSO 91 % of control | dose: 200.0 mg/kg/injection, schedule: Q04DX003 (ip), vehicle: DMSO 88 % of control

CCOC(=O)CCc1c(C(=O)OCC)[nH]c(C)c1C(=O)O
inactive: [1] 95 % of control | [2] 98 % of control | [3] 97 % of control

C#CCOC(=O)Nc1ccccc1
inactive: [4] 100 % of control | [5] 100 % of control | [6] 107 % of control

CCOc1ccccc1/C=N/N=C(N)N
inactive: dose: 63.0 mg/kg/injection, schedule: Q01DX Z (ip), vehicle: carboxymethylcellulose (CMC) 95 % of control | dose: 125.0 mg/kg/injection, schedule: Q01DX Z (ip), vehicle: carboxymethylcellulose (CMC) 95 % of control

Cc1ccc2[nH]c(=O)cc(C)c2c1
inactive: [7] 102 % of control | [8] 95 % of control | [9] 98 % of control | [10] 101 % of control

O=C(Nc1cccc(Cl)c1)OCC(Cl)(Cl)Cl
inactive: [5] 88 % of control | [1] 98 % of control | [6] 95 % of control | [2] 104 % of control | [11] 92 % of control | [3] 100 % of control

CNC(=O)CCC(=O)O
inactive: [12] 103 % of control | [13] 102 % of control | [14] 107 % of control | [15] 93 % of control | [16] 108 % of control | [17] 94 % of control

O=S(=O)(O)c1cc(O)c2c(O)c(N=Nc3ccccc3[As](=O)(O)O)c(S(=O)(=O)O)cc2c1
inactive: [12] 102 % of control | [14] 98 % of control and 99 % of control | [16] 103 % of control and 120 % of control | dose: 400.0 mg/kg/injection, schedule: Q04DX003 (ip), vehicle: saline 101 % of control and 103 % of control

O=C(Nc1cccc(F)c1)Nc1ccccc1Cl
inactive: [5] 105 % of control | [6] 97 % of control | [11] 95 % of control

NC(=O)N1CCN(CCCN2c3ccccc3Sc3cc(Cl)ccc32)CC1
inactive: dose: 6.25 mg/kg/injection, schedule: Q01DX009 (ip), vehicle: Klucel (hydroxypropylcellulose) (HPC) 95 % of control | dose: 12.5 mg/kg/injection, schedule: Q01DX009 (ip), vehicle: Klucel (hydroxypropylcellulose) (HPC) 110 % of control | dose: 25.0 mg/kg/injection, schedule: Q01DX009 (ip), vehicle: Klucel (hydroxypropylcellulose) (HPC) 115 % of control | dose: 25.0 mg/kg/injection, schedule: Q04DX003 (ip), vehicle: Klucel (hydroxypropylcellulose) (HPC) 113 % of control | dose: 50.0 mg/kg/injection, schedule: Q04DX003 (ip), vehicle: Klucel (hydroxypropylcellulose) (HPC) 109 % of control | [1] 115 % of control

CCOC1CCN(CCCn2c3ccccc3c3ccc(C(C)=O)cc32)CC1
inactive: [13] 95 % of control | [15] 92 % of control

CCCCCCCCCCCCCCCNC1=C(C)C(=O)C(NCCCCCCCCCCCCCCC)=C(C)C1=O
inactive: [7] 93 % of control | [18] 98 % of control | [19] 89 % of control

c1ccc(C(NC(c2ccccc2)c2ccccc2)c2ccccc2)cc1
inactive: dose: 50.0 mg/kg/injection, schedule: Q01DX001 (ip), vehicle: saline 91 % of control | [13] 97 % of control | [15] 93 % of control | [17] 97 % of control

c1ccc2c(c1)ccc1ccc(C3=NCCO3)cc12
inactive: [20] 94 % of control | [21] 100 % of control | [22] 100 % of control

CC(=O)OCC(Br)C(Br)COC(C)=O (centres undefined)
inactive: dose: 100.0 mg/kg/injection, schedule: Q01DX009 (ip), vehicle: saline 98 % of control | dose: 200.0 mg/kg/injection, schedule: Q01DX009 (ip), vehicle: saline 95 % of control | dose: 400.0 mg/kg/injection, schedule: Q01DX009 (ip), vehicle: saline 103 % of control

COC1=NS(=O)(=O)C(C)C(C)(C)O1 (centres undefined)
inactive: [23] 100 % of control | [24] 120 % of control | [25] 100 % of control

O=C(OC1COC(Br)C(OC(=O)c2ccccc2)C1OC(=O)c1ccccc1)c1ccccc1 (centres undefined)
inactive: dose: 50.0 mg/kg/injection, schedule: Q01DX001 (ip), vehicle: carboxymethylcellulose (CMC) 90 % of control | [7] 95 % of control and 97 % of control | [5] 97 % of control | [1] 106 % of control | [18] 93 % of control and 94 % of control | [6] 103 % of control | [2] 104 % of control | [19] 98 % of control and 94 % of control | [11] 98 % of control | [3] 98 % of control

c1ccc(N2CN(c3ccccc3)CN(c3ccccc3)C2)cc1
inactive: [20] 97 % of control | [23] 101 % of control | [21] 92 % of control | [24] 101 % of control | [22] 92 % of control | [25] 97 % of control

CCOC(=O)/C(C#N)=C\C1(C)CCC(C)=CO1 (centres undefined)
inactive: [26] 96 % of control | dose: 100.0 mg/kg/injection, schedule: Q04DX002 (ip), vehicle: saline with Tween-80 92 % of control | dose: 200.0 mg/kg/injection, schedule: Q01DX009 (ip), vehicle: saline with Tween-80 110 % of control | dose: 200.0 mg/kg/injection, schedule: Q04DX002 (ip), vehicle: saline with Tween-80 115 % of control | dose: 400.0 mg/kg/injection, schedule: Q01DX009 (ip), vehicle: saline with Tween-80 100 % of control | dose: 400.0 mg/kg/injection, schedule: Q04DX002 (ip), vehicle: saline with Tween-80 96 % of control

Cc1ccc(NC(=O)OCCN2CCNC2=S)c([N+](=O)[O-])c1
inactive: [4] 95 % of control | [5] 87 % of control | [1] 93 % of control | [6] 91 % of control | [2] 91 % of control | [3] 96 % of control

CCN1CCCC(Nc2nc(C(Cl)(Cl)Cl)nc3cc(Cl)ccc23)C1 (centres undefined)
inactive: [26] 104 % of control | [8] 87 % of control | [9] 89 % of control | [10] 88 % of control
